Test results: US6884813B2, “Antimicrobial dihydrothiazine and dihydrothiopyran oxazolidinones” (Pharmacia & Upjohn Company, priority 2002, dated 2005)
≈ marks a conversion by molar mass, not a printed value.

Assays:
[1] = system: SPNE 9912; assay: Minimum inhibitory concentration (MIC) by agar dilution; type: cell-based; details: Streptococcus pneumoniae, lowest concentration of drug that inhibits visible growth of the organism, strain SPNE 9912, read-out: Antibacterial Activity, Minimum Inhibitory Concentration (MIC μg/mL) SPNE 9912
Text: Compounds of this invention have useful activity against a variety of organisms. The in vitro activity of compounds of this invention can be assessed by standard testing procedures such as the determination of minimum inhibitory concentration (MIC) by agar dilution as described in “Approved Standard. Methods for Dilution Antimicrobial Susceptibility Tests for Bacteria That Grow Aerobically”, 3rd. ed., published 1993 by the National Committee for Clinical Laboratory Standards, Villanova, Pa., USA. Minimum inhibitory concentration (MIC) refers to lowest concentration of drug (μg/mL) that inhibits visible growth of the organism. “- -” refers to the activity data is not available.

| SMILES | MIC [1] | melting point |
| --- | --- | --- |
| O=C(NC[C@H]1CN(c2ccc(C3C=CS(=O)(=O)CC3)cc2)C(=O)O1)C(F)F (stereo partly drawn) [Example 15, N-[[(5S)-3-[4-(3,4-dihydro-1,1-dioxido-2H-thiopyran-4-yl)phenyl]-2-oxo-5-oxazolidinyl]methyl]-2,2-difluoroacetamide] | 0.5 µg/mL (≈ 1.25 µM) | 135 to 136 °C |
| O=C(NC[C@H]1CN(c2cc(F)c(N3C=CS(=O)(=O)CC3)c(F)c2)C(=O)O1)C(F)F [Example 29, N-[[(5S)-3-[4-(2,3-dihydro-1,1-dioxido-4H-1,4-thiazin-4-yl)-3,5-difluorophenyl]-2-oxo-5-oxazolidinyl]methyl]-2,2-difluoroacetamide] | 0.5 µg/mL (≈ 1.14 µM) | – |
| O=C(NC[C@H]1CN(c2cc(F)c(C3C=CS(=O)(=O)CC3)c(F)c2)C(=O)O1)C(F)F (stereo partly drawn) [Example 30, N-({(5S)-3-[4-(1,1-dioxido-3,4-dihydro-2H-thiopyran-4-yl)-3,5-difluorophenyl]-2-oxo-1,3-oxazolidin-5-yl}methyl)-2,2-difluoroacetamide] | 1 µg/mL (≈ 2.29 µM) | – |
| CCC(=O)NC[C@H]1CN(c2ccc(C3C=CS(=O)(=O)CC3)cc2)C(=O)O1 (stereo partly drawn) [Example 18, N-[[(5S)-3-[4-(3,4-dihydro-1,1-dioxido-2H-thiopyran-4-yl)phenyl]-2-oxo-5-oxazolidinyl]methyl]propionamide] | 1 µg/mL (≈ 2.64 µM) | 144 to 147 °C |
| CC(=O)NC[C@H]1CN(c2ccc(C3C=CSCC3)c(F)c2)C(=O)O1 (stereo partly drawn) [Example 2, N-[[(5S)-3-[4-(3,4-dihydro-2H-thiopyran-4-yl)-3-fluorophenyl]-2-oxo-5-oxazolidinyl]methyl]acetamide] | 1 µg/mL (≈ 2.85 µM) | – |
| CC(=O)NC[C@H]1CN(c2ccc(C3C=CS(=O)(=O)CC3)cc2)C(=O)O1 (stereo partly drawn) [Example 14, N-[[(5S)-3-[4-(3,4-dihydro-1,1-dioxido-2H-thiopyran-4-yl)phenyl]-2-oxo-5-oxazolidinyl]methyl]acetamide] | 1 µg/mL (≈ 2.74 µM) | 187 to 189 °C |
| CC(=O)NC[C@H]1CN(c2cc(F)c(C3C=CS(=O)(=O)CC3)c(F)c2)C(=O)O1 (stereo partly drawn) [Example 20, N-[[(5S)-3-[4-(3,4-dihydro-1,1-dioxido-2H-thiopyran-4-yl)-3,5-difluorophenyl]-2-oxo-5-oxazolidinyl]methyl]acetamide] | 1 µg/mL (≈ 2.5 µM) | – |
| O=C1O[C@@H](CNC(=S)C(F)F)CN1c1cc(F)c(N2C=CS(=O)(=O)CC2)c(F)c1 [Example 27, N-[[(5S)-3-[4-(2,3-dihydro-1,1-dioxido-4H-1,4-thiazin-4-yl)-3,5-difluorophenyl]-2-oxo-5-oxazolidinyl]methyl]-2,2-difluoroethanethioamide] | 0.25 µg/mL (≈ 0.551 µM) | – |
| O=C(NC[C@H]1CN(c2ccc(C3C=CS(=O)(=O)CC3)cc2)C(=O)O1)C(Cl)Cl (stereo partly drawn) [Example 16, 2,2-dichloro-N-[[(5S)-3-[4-(3,4-dihydro-1,1-dioxido-2H-thiopyran-4-yl)phenyl]-2-oxo-5-oxazolidinyl]methyl]acetamide] | 0.25 µg/mL (≈ 0.577 µM) | 159 to 161 °C |
| CC(=O)NC[C@H]1CN(c2ccc(C3C=C[S+]([O-])CC3)c(F)c2)C(=O)O1 (stereo partly drawn) [Example 4, N-[[(5S)-3-[4-(3,4-dihydro-1-oxido-2H-thiopyran-4-yl)-3-fluorophenyl]-2-oxo-5-oxazolidinyl]methyl]acetamide] | 1 µg/mL (≈ 2.73 µM) | – |
| O=C1O[C@@H](CNC(=S)C(F)F)CN1c1cc(F)c(C2C=CS(=O)(=O)CC2)c(F)c1 (stereo partly drawn) [Example 32, N-({(5S)-3-[4-(1,1-dioxido-3,4-dihydro-2H-thiopyran-4-yl)-3,5-difluorophenyl]-2-oxo-1,3-oxazolidin-5-yl}methyl)-2,2-difluoroethanethioamide] | 0.5 µg/mL (≈ 1.11 µM) | – |
| CC(=O)NC[C@H]1CN(c2ccc(N3C=CS(=O)(=O)CC3)c(F)c2)C(=O)O1 [Example 7, N-[[(5S)-3-[4-(2,3-dihydro-1,1-dioxido-4H-1,4-thiazin-4-yl)-3-fluorophenyl]-2-oxo-5-oxazolidinyl]methyl]acetamide] | 0.5 µg/mL (≈ 1.3 µM) | 193 to 194 °C |
| CC(=S)NC[C@H]1CN(c2ccc(C3C=C[S+]([O-])CC3)c(F)c2)C(=O)O1 (stereo partly drawn) [Example 6, N-[[(5S)-3-[4-(3,4-dihydro-1-oxido-2H-thiopyran-4-yl)-3-fluorophenyl]-2-oxo-5-oxazolidinyl]methyl]ethanethioamide] | 0.25 µg/mL (≈ 0.654 µM) | – |
| O=C1O[C@@H](CNC(=S)C(F)F)CN1c1ccc(N2C=CS(=O)(=O)CC2)cc1 [Example 24, N-[[(5S)-3-[4-(2,3-dihydro-1,1-dioxido-4H-1,4-thiazin-4-yl)phenyl]-2-oxo-5-oxazolidinyl]methyl]-2,2-difluoroethanethioamide] | 0.5 µg/mL (≈ 1.2 µM) | – |
| O=C1O[C@@H](CNC(=S)C(F)F)CN1c1ccc(C2C=CS(=O)(=O)CC2)cc1 (stereo partly drawn) [Example 17, [[(5S)-3-[4-(3,4-dihydro-1,1-dioxido-2H-thiopyran-4-yl)phenyl]-2-oxo-5-oxazolidinyl]methyl]-2,2-difluoroethanethioamide] | 0.25 µg/mL (≈ 0.6 µM) | 139 to 140 °C |
| COC(=O)NC[C@H]1CN(c2ccc(C3C=CS(=O)(=O)CC3)cc2)C(=O)O1 (stereo partly drawn) [Example 19, (S)-[[3-[4-(3,4-dihydro-1,1-dioxido-2H-thiopyran-4-yl)phenyl]-2-oxo-5-oxazolidinyl]methyl]carbamic acid, methyl ester] | 2 µg/mL (≈ 5.26 µM) | 196 to 197 °C |
| O=C(NC[C@H]1CN(c2ccc(C3C=CS(=O)(=O)CC3)c(F)c2)C(=O)O1)C(F)F (stereo partly drawn) [Example 9, N-[[(5S)-3-[4-(3,4-dihydro-1,1-dioxido-2H-thiopyran-4-yl)-3-fluorophenyl]-2-oxo-5-oxazolidinyl]methyl]-2,2-difluoroacetamide] | 0.5 µg/mL (≈ 1.2 µM) | – |
| O=C1O[C@@H](CNC(=S)C(F)F)CN1c1ccc(C2C=CS(=O)(=O)CC2)c(F)c1 (stereo partly drawn) [Example 10, N-[[(5S)-3-[4-(3,4-dihydro-1,1-dioxido-2H-thiopyran-4-yl)-3-fluorophenyl]-2-oxo-5-oxazolidinyl]methyl]-2,2-difluoroethanethioamide] | 0.25 µg/mL (≈ 0.575 µM) | – |
| CC(=O)NC[C@H]1CN(c2ccc(C3C=CS(=O)(=O)CC3)c(F)c2)C(=O)O1 (stereo partly drawn) [Example 5, N-[[(5S)-3-[4-(3,4-Dihydro-1,1-dioxido-2H-thiopyran-4-yl)-3-fluorophenyl]-2-oxo-5-oxazolidinyl]methyl]acetamide] | 0.25 µg/mL (≈ 0.654 µM) | – |
| O=C1O[C@@H](CNC(=O)C(F)(F)F)CN1c1ccc(C2C=CSCC2)c(F)c1 (stereo partly drawn) [Example 1, N-[[(5S)-3-[4-(3,4-dihydro-2H-thiopyran-4-yl)-3-fluorophenyl]-2-oxo-5-oxazolidinyl]methyl]-2,2,2-trifluoroacetamide] | 2 µg/mL (≈ 4.95 µM) | – |
| CC(=O)NC[C@H]1CN(c2cc(F)c(N3C=CS(=O)(=O)CC3)c(F)c2)C(=O)O1 [Example 8, N-[[(5S)-3-[4-(2,3-dihydro-1,1-dioxido-4H-1,4-thiazin-4-yl)-3,5-difluorophenyl]-2-oxo-5-oxazolidinyl]methyl]acetamide] | 0.5 µg/mL (≈ 1.25 µM) | – |
| O=C(NC[C@H]1CN(c2ccc(N3C=CS(=O)(=O)CC3)cc2)C(=O)O1)C(F)F [Example 26, N-[[(5S)-3-[4-(2,3-dihydro-1,1-dioxido-4H-1,4-thiazin-4-yl)phenyl]-2-oxo-5-oxazolidinyl]methyl]-2,2-difluoroacetamide] | 1 µg/mL (≈ 2.49 µM) | – |
| O=C(NC[C@H]1CN(c2ccc(N3C=CS(=O)(=O)CC3)c(F)c2)C(=O)O1)C(F)F [Example 23, N-[[(5S)-3-[4-(2,3-dihydro-1,1-dioxido-4H-1,4-thiazin-4-yl)-3-fluorophenyl]-2-oxo-5-oxazolidinyl]methyl]-2,2-difluoroacetamide] | 0.5 µg/mL (≈ 1.19 µM) | – |
| O=C(NC[C@H]1CN(c2cc(F)c(N3C=CS(=O)(=O)CC3)c(F)c2)C(=O)O1)C(Cl)Cl [Example 28, 2,2-dichloro-N-[[(5S)-3-[4-(2,3-dihydro-1,1-dioxido-4H-1,4-thiazin-4-yl)-3,5-difluorophenyl]-2-oxo-5-oxazolidinyl]methyl]acetamide] | 0.5 µg/mL (≈ 1.06 µM) | – |
| O=C1O[C@@H](CNC(=S)C(F)F)CN1c1ccc(N2C=CS(=O)(=O)CC2)c(F)c1 [Example 21, N-[[(5S)-3-[4-(2,3-dihydro-1,1-dioxido-4H-1,4-thiazin-4-yl)-3-fluorophenyl]-2-oxo-5-oxazolidinyl]methyl]-2,2-difluoroethanethioamide] | 0.25 µg/mL (≈ 0.574 µM) | – |
| CC(=S)NC[C@H]1CN(c2ccc(C3C=CSCC3)c(F)c2)C(=O)O1 (stereo partly drawn) [Example 3, N-[[(5S)-3-[4-(3,4-dihydro-2H-thiopyran-4-yl)-3-fluorophenyl]-2-oxo-5-oxazolidinyl]methyl]ethanethioamide] | 0.5 µg/mL (≈ 1.36 µM) | – |
| O=C(NC[C@H]1CN(c2cc(F)c(C3C=CS(=O)(=O)CC3)c(F)c2)C(=O)O1)C(Cl)Cl (stereo partly drawn) [Example 31, 2,2-dichloro-N-({(5S)-3-[4-(1,1-dioxido-3,4-dihydro-2H-thiopyran-4-yl)-3,5-difluorophenyl]-2-oxo-1,3-oxazolidin-5-yl}methyl)acetamide] | 0.5 µg/mL (≈ 1.07 µM) | – |
| O=C(NC[C@H]1CN(c2ccc(N3C=CS(=O)(=O)CC3)cc2)C(=O)O1)C(Cl)Cl [Example 25, 2,2-dichloro-N-[[(5S)-3-[4-(2,3-dihydro-1,1-dioxido-4H-1,4-thiazin-4-yl)phenyl]-2-oxo-5-oxazolidinyl]methyl]acetamide] | 1 µg/mL (≈ 2.3 µM) | – |
| O=C(NC[C@H]1CN(c2ccc(N3C=CS(=O)(=O)CC3)c(F)c2)C(=O)O1)C(Cl)Cl [Example 22, 2,2-dichloro-N-[[(5S)-3-[4-(2,3-dihydro-1,1-dioxido-4H-1,4-thiazin-4-yl)-3-fluorophenyl]-2-oxo-5-oxazolidinyl]methyl]acetamide] | 0.25 µg/mL (≈ 0.553 µM) | – |
| O=C(NC[C@H]1CN(c2ccc(C3C=CS(=O)(=O)CC3)c(F)c2)C(=O)O1)C(Cl)Cl (stereo partly drawn) [Example 11, 2,2-dichloro-N-[[(5S)-3-[4-(3,4-dihydro-1,1-dioxido-2H-thiopyran-4-yl)-3-fluorophenyl]-2-oxo-5-oxazolidinyl]methyl]acetamide] | 0.5 µg/mL (≈ 1.11 µM) | 148 to 150 °C |
